Assay results as given in patent US20260234185A1, “ANTI-AGING COMPOSITION COMPRISING PEPTIDE COMPLEX AS ACTIVE INGREDIENT” (priority 2023, published 2026).
Where no end group is shown, it is not given here.

Assays:
[1] = test system: AMPK; experiment: Western blot of AMPK phosphorylation in myocytes; type: cell-based, mouse; conditions: differentiated C2C12 myocytes; 0.2, 2, 20 μg/mL; 24 hours; Western blot (FIGS. 6a, 6b)
Method: (§1) An experiment was performed to determine whether the peptide complex increases the phosphorylation of AMPK and the expression of SIRT1 and FGF21 proteins in myocytes.
(§2) C2C12 cells, mouse-derived myoblasts, were cultured in DMEM medium containing 1% P/S and 2% BCS. When the cell confluency reached 70-80%, the cells were seeded in a 6-well culture plate. When the cell confluency in the 6-well culture plate reached 100%, the medium was replaced with differentiation medium (1% P/S, 2% horse serum), and thereafter, the differentiation medium (1% P/S, 2% horse serum) was replaced once every two days. Five days after the first replacement, the peptide complex was treated at concentrations of 0.2 μg/mL, 2 μg/mL, and 20 μg/mL and cultured for 24 hours. The group untreated with the peptide complex was used as the control. After dissolving by adding dissolution buffer thereto, the proteins obtained were centrifuged at 4° C. and 12,000 rpm for 30 minutes, and quantified using a BCA kit. The proteins were subjected to sodium dodecyl sulfate-polyacrylamide gel electrophoresis (SDS-PAGE) and then electrotransferred onto a membrane. The membrane with the proteins attached was blocked by treating it with 5% skim milk, and then the primary antibody was reacted overnight at 4° C. […]

[2] = test system: fibroblast growth factor 21 (FGF21) gene; experiment: RT-PCR of FGF21 gene expression in palmitate-treated adipocytes; type: cell-based; conditions: 3T3-L1 adipocytes, 25 μM palmitate 30 minutes; 0.2, 2, 20 μg/mL; 24 hours; RT-PCR vs palmitate control (PA) (FIGS. 4a, 4b)
Method: (§3) An experiment was performed to determine whether the peptide complex prepared in Preparation Example 1 increases the gene expression of longevity-related genes, FGF21, SIRT1, AMPK, and FOXO3A, in adipocytes in a state of insulin metabolic disorder induced by palmitate treatment.
(§4) When 3T3-L1 preadipocytes reached 80% confluence, they were seeded at 5×10^3 cells/well in a 96-well plate and used for the experiment. Two days after reaching confluence, the medium was replaced with differentiation-inducing medium to induce the differentiation into adipocytes, and two days after the induction, the medium was cultured for 2 days in a medium containing 10% FBS and 10 μg/mL insulin, and then the medium was replaced with 10% FBS every 2 days until their differentiation into adipocytes. After differentiation was complete, the medium was replaced with glucose-free medium, cultured for 16 hours, and then starvation was induced by culturing for 40 minutes in 100 μL KPPH buffer containing 2% BSA. After treating with 25 μM palmitate for 30 minutes, the peptide complexes were treated at concentrations of 0.2 μg/mL, 2 μg/mL, and 20 μg/mL, cultured for 24 hours, and RNA was extracted after 24 hours and RT-PCR was performed. […] Subsequently, the mRNA expression pattern was determined by agarose gel electrophoresis.

[3] = test system: AMP-activated protein kinase (AMPK) gene; experiment: RT-PCR of AMPK gene expression in palmitate-treated adipocytes; type: cell-based; conditions: 3T3-L1 adipocytes, 25 μM palmitate 30 minutes; 0.2, 2, 20 μg/mL; 24 hours; RT-PCR vs palmitate control (PA) (FIGS. 4a, 4b)
Method: as §3, §4

[4] = test system: FGF21; experiment: Western blot of FGF21 protein expression in myocytes; type: cell-based, mouse; conditions: differentiated C2C12 myocytes; 0.2, 2, 20 μg/mL; 24 hours; Western blot (FIGS. 6a, 6b)
Method: as §1, §2

[5] = test system: FGF21 protein; experiment: ELISA of FGF21 protein expression in adipocytes; type: cell-based; conditions: differentiated 3T3-L1 adipocytes, 0.2, 2, 20 μg/mL, ELISA (FIG. 2)
Method: An experiment was performed using adipocytes to determine whether the peptide complex prepared in Preparation Example 1 increases the expression level of FGF21 protein, a longevity-related protein, in adipocytes.
When 3T3-L1 preadipocytes reached 80% confluence, they were seeded at 5×10^3 cells/well in a 96-well plate and used for the experiment. Two days after reaching confluence, the medium was replaced with a differentiation-inducing medium to induce the differentiation into adipocytes, and two days after the induction, the cells were cultured for 2 days in a medium containing 10% FBS and 10 μg/mL insulin, and then the medium was replaced with 10% FBS every 2 days until differentiation into adipocytes. Once the differentiation was complete, the medium was replaced with a serum-free medium and cultured for 4 hours to induce starvation. The peptide complexes were treated at concentrations of 0.2 μg/mL, 2 μg/mL, and 20 μg/mL, and cultured for 48 and 72 hours, respectively. The complexes were dissolved by adding dissolution buffer thereto, and the proteins obtained by centrifugation at 4° C. and 12,000 rpm for 10 minutes were analyzed using a Quantikine ELISA Kit, and the absorbance was measured at 450 nm using a Microplate Reader.

peptide complex: prepared by mixing equal amounts of the peptide of SEQ ID NO: 1 (LKTRN) and the peptide of SEQ ID NO: 2 (KGSATGWMA) (also: mixture of two peptides)
increased: phosphorylation of AMPK [1] | expression of fibroblast growth factor 21 (FGF21) gene [2] | expression of AMP-activated protein kinase (AMPK) gene [3] | expression level of FGF21 protein [4] | expression level of FGF21 protein ([5]; 48 hours) | expression level of FGF21 protein ([5]; 72 hours)
